PMC9607599, “Dual Targeting Ligands—Histamine H3 Receptor Ligands with Monoamine Oxidase B Inhibitory Activity—In Vitro and In Vivo Evaluation” (Pharmaceutics, 2022)
Where “and” joins values, the source holds several entries; their conditions need not be identical. Equal values may be shown once. Where a name gives a salt, the structure may show the parent alone. Read-outs that look alike come from different tables or passages of the source.

Tests used:
[1] = target: T1, human histamine H3 receptor (hH3R) (Homo sapiens, UniProt Q9Y5N1); test: [3H]Nα-methylhistamine radioligand binding assay in HEK293 cells stably expressing hH3R; design: expressed in transfected cells; conditions: mean within 95% CI of three independent experiments
T1 sequence (Q9Y5N1 whole entry): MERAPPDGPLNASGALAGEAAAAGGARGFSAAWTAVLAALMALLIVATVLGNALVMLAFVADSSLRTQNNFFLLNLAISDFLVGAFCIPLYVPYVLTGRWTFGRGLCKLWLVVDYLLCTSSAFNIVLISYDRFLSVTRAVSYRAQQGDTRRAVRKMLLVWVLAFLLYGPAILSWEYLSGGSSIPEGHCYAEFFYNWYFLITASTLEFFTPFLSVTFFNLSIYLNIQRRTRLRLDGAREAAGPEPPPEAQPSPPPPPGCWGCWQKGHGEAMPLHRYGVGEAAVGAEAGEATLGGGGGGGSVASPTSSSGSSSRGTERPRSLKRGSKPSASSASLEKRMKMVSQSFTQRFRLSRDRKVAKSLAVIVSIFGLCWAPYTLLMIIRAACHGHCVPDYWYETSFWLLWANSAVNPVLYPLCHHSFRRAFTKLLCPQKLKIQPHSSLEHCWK
Method: (§1) Affinity to hH3R stably expressed in CHO-K1 [6] or HEK293 [11] cells was evaluated in a radioligand binding assay as described previously. Briefly, 10 mM stock solutions of the test compounds in DMSO were prepared. Each compound was tested at eight concentrations ranging from 10^−5 to 10^−12 M (final concentration). All assays were carried out in duplicate. […] The radioactivity was counted in MicroBeta 2 [6] or MicroBeta Trilux counter (PerkinElmer). Data were fitted to a one-site curve-fitting equation with Prism 6 (GraphPad Software, San Diego, CA, USA) and Ki values were calculated from IC50 values (from at least three experiments performed in duplicates) according to the Cheng−Prusoff equation [12].
(§2) Affinity for hH3R was evaluated in a radioligand binding assay using [^3H]N^α-methylhistamine as radioligand in CHO K1 or HEK293 cells stably expressing hH3R as described previously. […] Then, those with at least 50% inhibition for hH3R were selected for further testing (Ki evaluation). […] Compounds were tested in the binding assay in HEK293 cells.

human MAO B (hMAO B) [2] = target: T2, human MAO B (hMAO B) (Homo sapiens, UniProt P27338); test: fluorometric MAO assay (p-tyramine substrate); type: biochemical; conditions: for IC50: fluorometric MAO assay, mean ± SEM of 2–4 independent experiments; for inhibition at 1 µM: mean of two independent experiments, read-out: hMAO B % of Inh.
T2 sequence (P27338 1-520): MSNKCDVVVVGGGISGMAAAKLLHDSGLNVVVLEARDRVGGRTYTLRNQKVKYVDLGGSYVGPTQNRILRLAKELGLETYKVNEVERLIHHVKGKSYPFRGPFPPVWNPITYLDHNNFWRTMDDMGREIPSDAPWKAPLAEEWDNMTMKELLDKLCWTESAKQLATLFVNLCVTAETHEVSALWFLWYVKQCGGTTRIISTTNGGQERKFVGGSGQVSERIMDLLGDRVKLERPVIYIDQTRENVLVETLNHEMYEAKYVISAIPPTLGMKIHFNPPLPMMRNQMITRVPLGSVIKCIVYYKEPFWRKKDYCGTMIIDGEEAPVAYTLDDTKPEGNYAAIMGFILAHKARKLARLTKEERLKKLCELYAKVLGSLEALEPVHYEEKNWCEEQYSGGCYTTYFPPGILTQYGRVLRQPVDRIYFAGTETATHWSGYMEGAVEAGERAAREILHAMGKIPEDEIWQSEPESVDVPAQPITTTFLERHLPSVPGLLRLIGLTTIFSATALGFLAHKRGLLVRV
Method: The precise method was described in [6]. First, compounds 4–32 were screened for hMAO B inhibitory activity at 1 μM concentration by the fluorometric method. Para-tyramine (200 μM) was used as a substrate for the enzyme and safinamide (1 μM) was used as a reference compound. […] Each experiment was performed in duplicate.
All compounds were first screened for hMAO B inhibitory activity at the concentration of 1 μM. […] Based on the results, we selected compounds 9 and 13 for further analysis.

[3] = target: T1, human histamine H3 receptor (hH3R); design: expressed in transfected cells; conditions: HEK293 cells; read-out: hH3R Ki [nM] [95%CI]; cited from earlier work
[4] = parallel artificial membrane permeability assay (PAMPA); type: in vitro ADME; conditions: for Pe (×10^−6cm/s) ± SD: PAMPA, triplicate, breakpoint for permeable compounds Pe ≥ 1.5×10^−6 cm/s
[5] = target: T1, human histamine H3 receptor (hH3R); test: [3H]Nα-methylhistamine radioligand binding assay in CHO-K1 cells stably expressing hH3R; design: expressed in transfected cells; host or cells: CHO-K1; conditions: CHO-K1 cells; [3H]Nα-methylhistamine; mean ± SEM of three independent experiments; read-out: hH3R Ki [nM] ± SEM
Method: as §1, §2

human MAO B (hMAO B) [6] = target: T2, human MAO B (hMAO B); test: modality of hMAO B inhibition (Michaelis-Menten / Lineweaver-Burk); type: biochemical
Method: Modality of hMAO B inhibition was evaluated for compounds 9 and 13 and the reference safinamide according to the method described previously. Three concentrations of inhibitors, corresponding to their IC20, IC50 and IC80 values, were used. Each experiment was performed in triplicate. KM and Vmax values were calculated from Michaelis–Menten curves by nonlinear regression from the substrate. Lineweaver–Burk plots were calculated using linear regression in GraphPad Prism 6.07 (GraphPad Software, San Diego, CA, USA).
For testing modality of enzyme inhibition, we used three concentrations of inhibitors that corresponded to their IC20, IC50 and IC80 values. Substrate (p-tyramine) was used at concentrations: 0.05, 0.1, 0.5, 1.0, 1.5 and 2.0 mM.

[7] = MTT cell viability test on human astrocytes; type: cell-based; conditions: human; 24 h; at 0.15 and 0.25 mg/mL; read-out: decline in cell viability in comparison to the control level
Method: (§3) The studies were performed on a commercially-available astrocyte cell line isolated from human cerebral cortex (ScienCell Research Laboratories, San Diego, CA, USA; Cat no. 1800). The cells (passage 7–8) were seeded into a 96-well plate at an amount of 10,000 cells/well and kept in accordance with the ScienCell Research Laboratories’ protocol, i.e., in astrocyte medium supplemented with 2% fetal bovine serum, 10% astrocyte growth supplement and 1% penicillin/streptomycin solution, in an atmosphere with 5% CO2 at 37 °C. The cells were allowed to grow for 24 h and then treated with increasing concentrations of test compounds (0.01–0.25 mg/mL) for 24 and 72 h. Astrocytes in the medium on each plate (regardless of the factors tested) were used as a positive control.
(§4) The viability of the astrocyte cell line was determined calorimetrically using 3-(4,5-dimethylthazol-2-yl)-2,5-diphenyltetrazolium bromide (MTT; Sigma-Aldrich Chemical Co. Ltd., Saint Louis, MO, USA) as described earlier. […] After the incubation time (24 or 72 h) with examined drugs, 50 μL MTT solution (1 mg/mL) was added to each well of the plate for another 4 h. The method is based on the reduction of a yellow tetrazolium salt (MTT) into purple formazan crystals by mitochondrial succinate-tetrazolium reductase system which is metabolically active in viable cells. At the end of the experiment, the cells were treated with 100 μL dimethyl sulphoxide, which enabled the release of the reaction product.
(§5) The absorbance was measured at 570 nm using a BioTek EL×800 microplate reader (BioTek, Winooski, Vermont, USA) and results were expressed as a percentage of the absorbance measured in control cells. The obtained values were plotted against different concentrations of each compound to calculate the viability inhibition concentration at 50% (IC50) using GraphPad Prism 6.07 (GraphPad Software, Inc., San Diego, CA, USA). The experiment was repeated in quadruplicate.
(§6) For the cytotoxicity assessment in the MTT assays, each test drug was used at 8 concentrations (range: 0.01–0.25 mg/mL).

[8] = test system: astrocyte cell line isolated from human cerebral cortex; test: MTT cell viability test on human astrocytes; type: cell-based; conditions: Astrocyte, human astrocytes, MTT
Method: as §3, §4, §5, §6

MAO B = target: T3, MAO B (Homo sapiens, UniProt P27338); test: reversibility of MAO B inhibition (reactivation by excess p-tyramine, with/without preincubation); type: biochemical; conditions: inhibitor at IC80
T3 sequence (P27338 1-520): T2 sequence (P27338 1-520)
Method: The reversibility of the MAO inhibition was tested as described in [6, 7]. […] Two variants of experiment were performed. […] After 22 min, the concentration of the substrate was increased to 200 µM and the signal was measured for 5 h.

hMAO B = conditions: cited from earlier work
hH3R = conditions: cited from earlier work
[9] = inhibitor at IC20, IC50, IC80, p-tyramine 0.05–2.0 mM

Structure (SMILES) | Ki [1] | IC50 (human MAO B (hMAO B) [2]) | melting point | Ki (hH3R) | further results
CC(C)c1ccc(OCCCN2CCCCC2)cc1.O=C(O)C(=O)O [Compound 19, 1-(3-(4-Isopropylphenoxy)propyl)piperidine hydrogen oxalate] | 52 nM | 21 ± 3 nM | 112 to 115 °C |  | 
CC1CCCCN1CCCOc1ccc(C(C)(C)C)cc1 (stereo not shown) [Compound 10, 1-(3-(4-(tert-Butyl)phenoxy)propyl)-2-methylpiperidine hydrogen oxalate] |  |  |  |  | Ki [3]: < 100 nM
Cc1ccc(OCCCN2CCCCC2)cc1.O=C(O)C(=O)O [Compound 21, 1-(3-(p-Tolyloxy)propyl)piperidine hydrogen oxalate] | 43 nM | 755 ± 106 nM | 160 to 162 °C |  | 
Cn1c(=O)c2c(ncn2C)n(C)c1=O [caffeine, reference compound] |  |  |  |  | Pe (×10^−6cm/s) ± SD [4]: 15.1 ×10^−6cm/s
CCCN(CCC)CCCOc1ccc(C(C)(C)C)cc1.O=C(O)C(=O)O [Compound 9, 3-(4-(tert-Butyl)phenoxy)-N,N-dipropylpropan-1-amine hydrogen oxalate] |  | 2 nM | 139 to 142 °C |  | permeability in PAMPA, in words [4]: not able to cross the artificial membrane; Pe (×10^−6cm/s) ± SD [4]: ^---- -- ^c; Ki [5]: 323 ± 73 nM; Affinity (free enzyme vs enzyme-substrate complex) (human MAO B (hMAO B) [6]): Free enzyme ≈ enzyme-substrate complex; Mode of inhibition from kinetic values and LB plot (human MAO B (hMAO B) [6]): noncompetitive inhibition; Lines on LB plot (human MAO B (hMAO B) [6]; Lineweaver–Burk double-reciprocal plot): Lines intersect to the left of y-axis directly on x-axis; app. KM (human MAO B (hMAO B) [6]; [9]): No effect ^a; app. Vmax (human MAO B (hMAO B) [6]; [9]): ↓ curvilinearly with ↑ [I]; app. Vmax/app. KM (human MAO B (hMAO B) [6]; [9]): ↓ curvilinearly with ↑ [I]; viability at 24 h [7]: > 95%; IC50 ([8]; 24 h incubation, read-out: IC50 24 h): 144 µM and 55 µg/mL; IC50 ([8]; 72 h incubation, read-out: IC50 72 h): 123 µM and 47 µg/mL; effect of 30 min preincubation on inhibition (preincubated vs non-preincubated) (MAO B): did not show differences between the variants; reversibility of MAO B inhibition (MAO B; excess p-tyramine 200 µM): reversible inhibition
CCC(C)(C)c1ccc(OCCCN2CCCCC2)cc1 [DL77] |  |  |  | 37 nM | IC50 (hMAO B): 19 nM
CC(=O)c1ccc(OCCCN2CCCCC2)cc1.O=C(O)C(=O)O [Compound 18, 1-(4-(3-(Piperidin-1-yl)propoxy)phenyl)ethan-1-one hydrogen oxalate] | 15 nM |  | 157 to 159 °C |  | inhibition at 1 µM (human MAO B (hMAO B) [2]): 19%
CCc1ccc(OCCCN2CCCCC2)cc1.O=C(O)C(=O)O [Compound 20, 1-(3-(4-Ethylphenoxy)propyl)piperidine hydrogen oxalate] | 62 nM and 61 nM | 70 ± 2 nM | 144 to 146 °C |  | 
Fc1ccc(OCCCN2CCCCC2)cc1.O=C(O)C(=O)O [Compound 22, 1-(3-(4-Fluorophenoxy)propyl)piperidine hydrogen oxalate] | > 80 nM and 93 nM |  | 132 to 136 °C |  | inhibition at 1 µM (human MAO B (hMAO B) [2]): 29%
O=C(c1ccc(OCCCc2cnc[nH]2)cc1)C1CC1 [ciproxifan] |  |  |  | 46 nM | IC50 (hMAO B): 2000 nM
O=C1/C(=C/c2ccc(OCCCN3CCCCC3)cc2)Cc2cc(OCc3ccc(Br)cc3)ccc21 [Compound 1] |  |  |  | 6.5 nM | 
CCC(C)(C)c1ccc(OCCCN2CCCC2)cc1 [Compound 3] |  |  |  | 63 nM | IC50 (hMAO B): 4.5 nM
Clc1ccc(OCCCN2CCCCC2)cc1.O=C(O)C(=O)O [Compound 23, 1-(3-(4-chlorophenoxy)propyl)piperidine hydrogen oxalate] | > 80 nM and 83 nM | 1060 ± 37 nM | 158 to 160 °C |  | 
